Measured values from patent US20080058213A1, “Benzoxazole Compounds” (priority 2004, published 2008).

How the values were obtained:
Format in all cases: in vivo
[1] = test system: barnyard grass (Echinochloa crusgalli); assay: Weed control test for paddy field (Test Example 1): barnyard grass; details: paddy pots, treated at 1.0 leaf stage of barnyard grass, examined after 3 weeks
Text: (§1) Paddy field soil was filled in 1/10,000 are pots, kneaded with adequate amounts of water and chemical fertilizer, seeded with barnyard grass (Echinochloa crusgalli), Monochoria (Monochoria vaginalis), Japanese bulrush (Scirpus juncoides) and flat sedge (Cyperus serotinus), and further transplanted with 2.0 leaf stage of rice plant. The pots were maintained under the water-filled condition to a depth of 3 cm.
(§2) Wettable powders containing the compounds (1) as identified in Table 1, which were formulated following Production Example 2, were diluted with adequate amount of water and applied to the pots dropwise with pippet at a prescribed dose of the active ingredients per are, at 1.0 leaf stage of the barnyard grass.
(§3) After placing the pots in a glasshouse which was controlled at an average temperature of 25° C. for 3 weeks, herbicidal effect was examined.
(§4) Evaluation of the herbicidal effect is shown in the following six grades, by comparing the condition of untreated control and growth inhibition (%): • 0: 0%-less than 20% • 1: 20%-less than 40% • 2: 40%-less than 60% • 3: 60%-less than 80% • 4: 80%-less than 100% • 5: 100%.

[2] = test system: Monochoria (Monochoria vaginalis); assay: Weed control test for paddy field (Test Example 1): Monochoria; details: paddy pots, treated at 1.0 leaf stage of barnyard grass, examined after 3 weeks
Text: as §1, §2, §3, §4

[3] = test system: Japanese bulrush (Scirpus juncoides); assay: Weed control test for paddy field (Test Example 1): Japanese bulrush; details: paddy pots, treated at 1.0 leaf stage of barnyard grass, examined after 3 weeks
Text: as §1, §2, §3, §4

[4] = test system: flat sedge (Cyperus serotinus); assay: Weed control test for paddy field (Test Example 1): flat sedge; details: paddy pots, treated at 1.0 leaf stage of barnyard grass, examined after 3 weeks
Text: as §1, §2, §3, §4

[5] = test system: rice plant; assay: Weed control test for paddy field (Test Example 1): phytotoxicity to rice plant; details: paddy pots, treated at 1.0 leaf stage of barnyard grass, examined after 3 weeks
Text: as §1, §2, §3
Evaluation of phytotoxicity is shown in the following six grades, as compared with the condition of untreated control: • 0: normal growth • 1: little damaged • 2: low damaged • 3: medium damaged • 4: serious damaged • 5: complete killed.

[6] = test system: southern crabgrass (Digitaria ciliaris); assay: Soil treatment test for upland field (Test Example 2): southern crabgrass; details: soil treatment before germination, examined after 3 weeks
Procedure, shortened: (§5)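 Pots of upland soil were seeded and covered, then wettable-powder formulations at the prescribed active-ingredient dose were sprayed onto the soil surface before weed germination, in 15 liters water per are. After 3 weeks in a glasshouse at about 25° C., growth inhibition versus untreated control was scored 0 (<20%) to 5 (100%).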

[7] = test system: common lambsquaters (Chenopodium album); assay: Soil treatment test for upland field (Test Example 2): common lambsquaters; details: soil treatment before germination, examined after 3 weeks
Procedure, shortened: as §5

[8] = test system: slender amaranth (Amaranthus viridis); assay: Soil treatment test for upland field (Test Example 2): slender amaranth; details: soil treatment before germination, examined after 3 weeks
Procedure, shortened: as §5

[9] = test system: common purslane (Portulaca oleracea); assay: Soil treatment test for upland field (Test Example 2): common purslane; details: soil treatment before germination, examined after 3 weeks
Procedure, shortened: as §5

[10] = test system: velvetleaf (Abutilon theophrasti); assay: Soil treatment test for upland field (Test Example 2): velvetleaf; details: soil treatment before germination, examined after 3 weeks
Procedure, shortened: as §5

[11] = test system: wheat; assay: Soil treatment test for upland field (Test Example 2): phytotoxicity to wheat; details: soil treatment before germination, examined after 3 weeks
[12] = test system: corn; assay: Soil treatment test for upland field (Test Example 2): phytotoxicity to corn; details: soil treatment before germination, examined after 3 weeks
[13] = test system: soybean; assay: Soil treatment test for upland field (Test Example 2): phytotoxicity to soybean; details: soil treatment before germination, examined after 3 weeks
[14] = test system: southern crabgrass; assay: Foliage treatment test for upland field (Test Example 3): southern crabgrass; details: foliage treatment at 1.0-2.0 leaf stage of southern crabgrass, examined after 3 weeks
Procedure, shortened: (§6)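 Wettable powders diluted to the prescribed dose and sprayed at 15 L/are at the 1.0-2.0 leaf stage of southern crabgrass on glasshouse-grown plants (25° C average). Effect graded 0-5 after 3 weeks from growth inhibition versus untreated control (0: <20% to 5: 100%).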

[15] = test system: common lambsquaters; assay: Foliage treatment test for upland field (Test Example 3): common lambsquaters; details: foliage treatment at 1.0-2.0 leaf stage of southern crabgrass, examined after 3 weeks
Procedure, shortened: as §6

[16] = test system: slender amaranth; assay: Foliage treatment test for upland field (Test Example 3): slender amaranth; details: foliage treatment at 1.0-2.0 leaf stage of southern crabgrass, examined after 3 weeks
Procedure, shortened: as §6

[17] = test system: common purslane; assay: Foliage treatment test for upland field (Test Example 3): common purslane; details: foliage treatment at 1.0-2.0 leaf stage of southern crabgrass, examined after 3 weeks
Procedure, shortened: as §6

[18] = test system: velvetleaf; assay: Foliage treatment test for upland field (Test Example 3): velvetleaf; details: foliage treatment at 1.0-2.0 leaf stage of southern crabgrass, examined after 3 weeks
Procedure, shortened: as §6

[19] = test system: wheat; assay: Foliage treatment test for upland field (Test Example 3): phytotoxicity to wheat; details: foliage treatment at 1.0-2.0 leaf stage of southern crabgrass, examined after 3 weeks
Procedure, shortened: (§7)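 Crops sown in compost-mixed soil pots, kept in a glasshouse at 25° C. average. Effect scored after 3 weeks versus untreated control on a 0–5 scale (0 normal growth, 5 complete kill).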

[20] = test system: corn; assay: Foliage treatment test for upland field (Test Example 3): phytotoxicity to corn; details: foliage treatment at 1.0-2.0 leaf stage of southern crabgrass, examined after 3 weeks
Procedure, shortened: as §7

[21] = test system: soybean; assay: Foliage treatment test for upland field (Test Example 3): phytotoxicity to soybean; details: foliage treatment at 1.0-2.0 leaf stage of southern crabgrass, examined after 3 weeks
Procedure, shortened: as §7

COCC(=Cc1cccc(C(F)(F)F)c1)c1nc2cc(C(F)(F)F)ccc2o1 [Compound 52]
5 (100%): Herbicidal Effect Barnyard grass ([1]; dose 2.5 g ai/a) | Herbicidal Effect Barnyard grass ([1]; dose 5 g ai/a) | Herbicidal Effect Monochoria vaginalis ([2]; dose 2.5 g ai/a) | Herbicidal Effect Monochoria vaginalis ([2]; dose 5 g ai/a) | Herbicidal Effect Japanese bulrush ([3]; dose 5 g ai/a) | Herbicidal Effect southern crabgrass ([6]; dose 2.5 g ai/a) | Herbicidal Effect southern crabgrass ([6]; dose 5 g ai/a) | Herbicidal Effect common lambsquaters ([7]; dose 2.5 g ai/a) | Herbicidal Effect common lambsquaters ([7]; dose 5 g ai/a) | Herbicidal Effect slender amaranth ([8]; dose 2.5 g ai/a) | Herbicidal Effect slender amaranth ([8]; dose 5 g ai/a) | Herbicidal Effect common purslane ([9]; dose 2.5 g ai/a) | Herbicidal Effect common purslane ([9]; dose 5 g ai/a) | Herbicidal Effect velvetleaf ([10]; dose 2.5 g ai/a) | Herbicidal Effect velvetleaf ([10]; dose 5 g ai/a) | Herbicidal Effect southern crabgrass ([14]; dose 2.5 g ai/a) | Herbicidal Effect southern crabgrass ([14]; dose 5 g ai/a) | Herbicidal Effect Common lambsquatters ([15]; dose 2.5 g ai/a) | Herbicidal Effect Common lambsquatters ([15]; dose 5 g ai/a) | Herbicidal Effect slender amaranth ([16]; dose 2.5 g ai/a) | Herbicidal Effect slender amaranth ([16]; dose 5 g ai/a) | Herbicidal Effect common purslane ([17]; dose 2.5 g ai/a) | Herbicidal Effect common purslane ([17]; dose 5 g ai/a) | Herbicidal Effect velvetleaf ([18]; dose 2.5 g ai/a) | Herbicidal Effect velvetleaf ([18]; dose 5 g ai/a)
0: Phytotoxicity Rice plant ([5]; dose 2.5 g ai/a) | Phytotoxicity soybean ([13]; dose 2.5 g ai/a)
2: Phytotoxicity soybean ([21]; dose 5 g ai/a)
1: Phytotoxicity Rice plant ([5]; dose 5 g ai/a) | Phytotoxicity wheat ([11]; dose 2.5 g ai/a) | Phytotoxicity wheat ([11]; dose 5 g ai/a) | Phytotoxicity corn ([12]; dose 2.5 g ai/a) | Phytotoxicity corn ([12]; dose 5 g ai/a) | Phytotoxicity soybean ([13]; dose 5 g ai/a) | Phytotoxicity wheat ([19]; dose 2.5 g ai/a) | Phytotoxicity wheat ([19]; dose 5 g ai/a) | Phytotoxicity corn ([20]; dose 2.5 g ai/a) | Phytotoxicity corn ([20]; dose 5 g ai/a) | Phytotoxicity soybean ([21]; dose 2.5 g ai/a)
4 (80%-less than 100%): Herbicidal Effect Japanese bulrush ([3]; dose 2.5 g ai/a) | Herbicidal Effect Flat sedge ([4]; dose 5 g ai/a)
3 (60%-less than 80%): Herbicidal Effect Flat sedge ([4]; dose 2.5 g ai/a)

CCOCC(=Cc1cccc(C(F)(F)F)c1)c1nc2cc(C(F)(F)F)ccc2o1 [Compound 54]
1: Phytotoxicity Rice plant ([5]; dose 2.5 g ai/a) | Phytotoxicity Rice plant ([5]; dose 5 g ai/a) | Phytotoxicity wheat ([11]; dose 2.5 g ai/a) | Phytotoxicity wheat ([11]; dose 5 g ai/a) | Phytotoxicity corn ([12]; dose 2.5 g ai/a) | Phytotoxicity corn ([12]; dose 5 g ai/a) | Phytotoxicity soybean ([13]; dose 5 g ai/a) | Phytotoxicity wheat ([19]; dose 2.5 g ai/a) | Phytotoxicity wheat ([19]; dose 5 g ai/a) | Phytotoxicity corn ([20]; dose 2.5 g ai/a)
2: Phytotoxicity corn ([20]; dose 5 g ai/a) | Phytotoxicity soybean ([21]; dose 2.5 g ai/a) | Phytotoxicity soybean ([21]; dose 5 g ai/a)
0: Phytotoxicity soybean ([13]; dose 2.5 g ai/a)
4 (80%-less than 100%): Herbicidal Effect Japanese bulrush ([3]; dose 2.5 g ai/a) | Herbicidal Effect Flat sedge ([4]; dose 5 g ai/a)
5 (100%): Herbicidal Effect Barnyard grass ([1]; dose 2.5 g ai/a) | Herbicidal Effect Barnyard grass ([1]; dose 5 g ai/a) | Herbicidal Effect Monochoria vaginalis ([2]; dose 2.5 g ai/a) | Herbicidal Effect Monochoria vaginalis ([2]; dose 5 g ai/a) | Herbicidal Effect Japanese bulrush ([3]; dose 5 g ai/a) | Herbicidal Effect southern crabgrass ([6]; dose 2.5 g ai/a) | Herbicidal Effect southern crabgrass ([6]; dose 5 g ai/a) | Herbicidal Effect common lambsquaters ([7]; dose 2.5 g ai/a) | Herbicidal Effect common lambsquaters ([7]; dose 5 g ai/a) | Herbicidal Effect slender amaranth ([8]; dose 2.5 g ai/a) | Herbicidal Effect slender amaranth ([8]; dose 5 g ai/a) | Herbicidal Effect common purslane ([9]; dose 2.5 g ai/a) | Herbicidal Effect common purslane ([9]; dose 5 g ai/a) | Herbicidal Effect velvetleaf ([10]; dose 2.5 g ai/a) | Herbicidal Effect velvetleaf ([10]; dose 5 g ai/a) | Herbicidal Effect southern crabgrass ([14]; dose 2.5 g ai/a) | Herbicidal Effect southern crabgrass ([14]; dose 5 g ai/a) | Herbicidal Effect Common lambsquatters ([15]; dose 2.5 g ai/a) | Herbicidal Effect Common lambsquatters ([15]; dose 5 g ai/a) | Herbicidal Effect slender amaranth ([16]; dose 2.5 g ai/a) | Herbicidal Effect slender amaranth ([16]; dose 5 g ai/a) | Herbicidal Effect common purslane ([17]; dose 2.5 g ai/a) | Herbicidal Effect common purslane ([17]; dose 5 g ai/a) | Herbicidal Effect velvetleaf ([18]; dose 2.5 g ai/a) | Herbicidal Effect velvetleaf ([18]; dose 5 g ai/a)
3 (60%-less than 80%): Herbicidal Effect Flat sedge ([4]; dose 2.5 g ai/a)

COCC(=Cc1ccc(F)c(C(F)(F)F)c1)c1nc2cc(F)c(F)cc2o1 [Compound 126]
3 (60%-less than 80%): Herbicidal Effect Japanese bulrush ([3]; dose 2.5 g ai/a) | Herbicidal Effect Flat sedge ([4]; dose 5 g ai/a) | Herbicidal Effect velvetleaf ([10]; dose 2.5 g ai/a) | Herbicidal Effect velvetleaf ([18]; dose 2.5 g ai/a)
4 (80%-less than 100%): Herbicidal Effect Japanese bulrush ([3]; dose 5 g ai/a) | Herbicidal Effect southern crabgrass ([6]; dose 2.5 g ai/a) | Herbicidal Effect velvetleaf ([10]; dose 5 g ai/a) | Herbicidal Effect southern crabgrass ([14]; dose 2.5 g ai/a) | Herbicidal Effect velvetleaf ([18]; dose 5 g ai/a)
5 (100%): Herbicidal Effect Barnyard grass ([1]; dose 2.5 g ai/a) | Herbicidal Effect Barnyard grass ([1]; dose 5 g ai/a) | Herbicidal Effect Monochoria vaginalis ([2]; dose 2.5 g ai/a) | Herbicidal Effect Monochoria vaginalis ([2]; dose 5 g ai/a) | Herbicidal Effect southern crabgrass ([6]; dose 5 g ai/a) | Herbicidal Effect common lambsquaters ([7]; dose 2.5 g ai/a) | Herbicidal Effect common lambsquaters ([7]; dose 5 g ai/a) | Herbicidal Effect slender amaranth ([8]; dose 2.5 g ai/a) | Herbicidal Effect slender amaranth ([8]; dose 5 g ai/a) | Herbicidal Effect common purslane ([9]; dose 2.5 g ai/a) | Herbicidal Effect common purslane ([9]; dose 5 g ai/a) | Herbicidal Effect southern crabgrass ([14]; dose 5 g ai/a) | Herbicidal Effect Common lambsquatters ([15]; dose 2.5 g ai/a) | Herbicidal Effect Common lambsquatters ([15]; dose 5 g ai/a) | Herbicidal Effect slender amaranth ([16]; dose 2.5 g ai/a) | Herbicidal Effect slender amaranth ([16]; dose 5 g ai/a) | Herbicidal Effect common purslane ([17]; dose 2.5 g ai/a) | Herbicidal Effect common purslane ([17]; dose 5 g ai/a)
2 (40%-less than 60%): Herbicidal Effect Flat sedge ([4]; dose 2.5 g ai/a)
0: Phytotoxicity Rice plant ([5]; dose 2.5 g ai/a) | Phytotoxicity Rice plant ([5]; dose 5 g ai/a) | Phytotoxicity wheat ([11]; dose 2.5 g ai/a) | Phytotoxicity wheat ([11]; dose 5 g ai/a) | Phytotoxicity corn ([12]; dose 2.5 g ai/a) | Phytotoxicity corn ([12]; dose 5 g ai/a) | Phytotoxicity soybean ([13]; dose 2.5 g ai/a) | Phytotoxicity soybean ([13]; dose 5 g ai/a) | Phytotoxicity wheat ([19]; dose 2.5 g ai/a) | Phytotoxicity corn ([20]; dose 2.5 g ai/a)
1: Phytotoxicity wheat ([19]; dose 5 g ai/a) | Phytotoxicity corn ([20]; dose 5 g ai/a) | Phytotoxicity soybean ([21]; dose 2.5 g ai/a) | Phytotoxicity soybean ([21]; dose 5 g ai/a)
